{"source": "patent US7241913B2", "about": "“Ruthenium compounds” (The University Court of the University of Edinburgh, priority 2003, dated 2007)", "key": {"[1]": {"tested_on": "A2780 ovarian cancer cell line", "assay": "Growth inhibition of human ovarian cancer cells, 24 h exposure, Coulter cell count", "type": "cell-based", "experimental": "(§1) The human ovarian cells were added at a density of 1×10^4 cells per well to 24-well tissue culture trays (Falcon Plastic, Becton Dickenson, Lincon Park, N.J., USA) and allowed to grow for 72 h before addition of the Ru(II) arene complexes. Stock solutions of the ruthenium compounds were made up fresh in deionised water and sonicated to ensure complete dissolution. These stock solutions were diluted with media to give final concentrations ranging between 0.1 and 100 μM. All compounds were evaluated at each concentration in duplicate wells, and complete assays were repeated a minimum of three times. Cisplatin or carboplatin was employed as a positive and comparative control in each experiment. After 24-hours exposure the drug-containing medium was removed, the cells washed with phosphate buffered saline (PBS) and fresh medium was added. Cell number was assessed after a further 72 h growth using a Coulter counter (Coulter Electronics Ltd, Luton, UK) and the IC50 values (concentration of drug causing 50% growth inhibition) calculated by linear regression analysis comparing the inhibitory effects of the drugs against the growth of untreated cells.\n(§2) The cell lines and methods used are also described in Aird et al, Br. J. Cancer, (2002), 86, 1652–1657.\n(§3) Using the above protocol, a number of compounds of the invention were tested on A2780 ovarian cancer cell line, on an A2780 ovarian cancer cell line resistant to cis-platin (A2780^CIS), and on an A2780 ovarian cancer cell line resistant to adriamycin (A2780^AD). Some of the compounds were tested on an A549 cell line."}, "[2]": {"tested_on": "A549 cell line", "assay": "Growth inhibition, A549 cell line", "type": "cell-based", "conditions": "A549 cells; Table 1", "experimental": "as §1, §3"}, "[3]": {"tested_on": "A2780 ovarian cancer cell line resistant to adriamycin (A2780^AD)", "assay": "Growth inhibition, adriamycin resistant ovarian line", "type": "cell-based, human", "conditions": "adriamycin resistant A2780 relative to A2780", "experimental": "as §1, §2, §3"}, "[4]": {"tested_on": "A2780 ovarian cancer cell line resistant to cis-platin (A2780^CIS)", "assay": "Growth inhibition, cis-platin resistant ovarian line", "type": "cell-based, human", "conditions": "cis-platin resistant A2780 relative to A2780", "experimental": "as §1, §2, §3"}, "[5]": {"conditions": "24 h exposure, cell number after further 72 h growth, Table 1"}, "[6]": {"conditions": "comparison with 1,2-diaminoethane analogues"}}, "data": [{"compound": "F[P-](F)(F)(F)(F)F.Nc1cccc(O)c1N.[Cl][Ru+].c1ccc(-c2ccccc2)cc1", "note": "[EX 4, [(η^6-Biphenyl)Ru(2,3-diaminophenol)Cl]PF6]", "values": [{"measurement": "IC50", "setting": "[1]; [5]", "value": 32, "unit": "µM"}]}, {"compound": "Nc1ccc2c(c1N)C(=O)c1ccccc1C2=O.[Cl-].[Cl][Ru+].c1ccc2c(c1)CCCC2", "note": "[Example 9, [(η^6-1,2,3,4-tetrahydronaphthalene)Ru(1,2-diaminoanthraquinone)Cl]Cl]", "values": [{"measurement": "IC50", "setting": "[2]", "value": 61, "unit": "µM"}, {"measurement": "IC50", "setting": "[1]; [5]", "value": 37, "unit": "µM"}]}, {"compound": "F[P-](F)(F)(F)(F)F.[Cl][Ru-]1[NH2+]c2ccccc2[NH2+]1.c1ccc(-c2ccccc2)cc1", "note": "[EX 1, [(η^6-Biphenyl)Ru(o-phenylenediamine)Cl]PF6]", "values": [{"measurement": "IC50", "setting": "[1]; [5]", "value": 5, "unit": "µM"}, {"measurement": "IC50", "setting": "[1]; [6]", "value": 5, "unit": "µM"}, {"measurement": "A2780^AD fold resistance", "setting": "[3]; Table 1", "value": 0.8, "unit": "fold"}, {"measurement": "A2780^AD fold resistance", "setting": "[3]; [6]", "value": 0.8, "unit": "fold"}, {"measurement": "A2780^CIS Fold resistance", "setting": "[4]; Table 1", "value": 1, "unit": "fold"}, {"measurement": "A2780^CIS Fold resistance", "setting": "[4]; [6]", "value": 1, "unit": "fold"}]}, {"compound": "Cc1ccc(C(C)C)cc1.F[P-](F)(F)(F)(F)F.Nc1ccccc1N.[Cl][Ru+]", "note": "[EX 6, [(η^6-p-cymene)Ru(o-phenylenediamine)Cl]PF6]", "values": [{"measurement": "IC50", "setting": "[1]; [5]", "value": 11, "unit": "µM"}, {"measurement": "IC50", "setting": "[1]; [6]", "value": 11, "unit": "µM"}, {"measurement": "A2780^AD fold resistance", "setting": "[3]; Table 1", "value": 0.6, "unit": "fold"}, {"measurement": "A2780^AD fold resistance", "setting": "[3]; [6]", "value": 0.6, "unit": "fold"}, {"measurement": "A2780^CIS Fold resistance", "setting": "[4]; Table 1", "value": 1, "unit": "fold"}, {"measurement": "A2780^CIS Fold resistance", "setting": "[4]; [6]", "value": 1, "unit": "fold"}]}, {"compound": "F[P-](F)(F)(F)(F)F.Nc1ccccc1N.[Cl][Ru+].c1ccc2c(c1)Cc1ccccc1C2", "note": "[EX 3, [(η^6-dihydroanthracene)Ru(o-phenylenediamine)Cl]PF6]", "values": [{"measurement": "IC50", "setting": "[1]; [5]", "value": 7, "unit": "µM"}, {"measurement": "IC50", "setting": "[1]; [6]", "value": 7, "unit": "µM"}, {"measurement": "A2780^AD fold resistance", "setting": "[3]; Table 1", "value": 2, "unit": "fold"}, {"measurement": "A2780^AD fold resistance", "setting": "[3]; [6]", "value": 2, "unit": "fold"}, {"measurement": "A2780^CIS Fold resistance", "setting": "[4]; Table 1", "value": 5, "unit": "fold"}, {"measurement": "A2780^CIS Fold resistance", "setting": "[4]; [6]", "value": 5, "unit": "fold"}]}, {"compound": "F[P-](F)(F)(F)(F)F.F[P-](F)(F)(F)(F)F.Nc1ccc(-c2ccc(N)c(N)c2)cc1N.[Cl][Ru+].[Cl][Ru+].c1ccc(-c2ccccc2)cc1.c1ccc(-c2ccccc2)cc1", "note": "[EX 2, {[(η^6-Biphenyl)Ru(diaminobenzidine)Cl]PF6}2]", "values": [{"measurement": "IC50", "setting": "[1]; [5]", "value": 52, "unit": "µM"}]}, {"compound": "Nc1ccc2c(c1N)C(=O)c1ccccc1C2=O.[Cl-].[Cl][Ru+].c1ccc2c(c1)CCC2", "note": "[Example 8, [(η^6-indan)Ru(1,2-diaminoanthraquinone)Cl]Cl]", "values": [{"measurement": "IC50", "setting": "[2]", "value": 48, "unit": "µM"}, {"measurement": "IC50", "setting": "[1]; [5]", "value": 15, "unit": "µM"}]}, {"compound": "F[P-](F)(F)(F)(F)F.Nc1ccc([N+](=O)[O-])cc1N.[Cl][Ru+].c1ccc2c(c1)CCCC2", "note": "[Example 7, [(η^6-1,2,3,4-tetrahydronaphthalene)Ru(1,2-diamino-4-nitrobenzene)Cl]PF6]", "values": [{"measurement": "IC50", "setting": "[2]", "value": 148, "unit": "µM"}, {"measurement": "IC50", "setting": "[1]; [5]", "value": 59, "unit": "µM"}]}, {"compound": "Cc1ccc(N)c(N)c1.F[P-](F)(F)(F)(F)F.[Cl][Ru+].c1ccc2c(c1)CCC2", "note": "[EX 5, [(η^6-indan)Ru(3,4-diaminotoluene)Cl]PF6]", "values": [{"measurement": "IC50", "setting": "[1]; [5]", "value": 4, "unit": "µM"}]}]}
